Experimental data as given in patent EP0104857A1, “Deoxyuridine compounds, methods for preparing them and their use in medicine” (BEECHAM GROUP PLC, priority 1982, dated 1984).
Where two headings read alike, the source gives them in different places. Values belong to the compound of their own block, whether it stands above or below them.

Assays:
[1] = test system: Herpes simplex type 1 virus (HFEM strain); assay: Plaque reduction assay in virus-infected Vero cells; type: cell-based; conditions: Human alphaherpesvirus 1, 96 h, concentration causing 50% reduction in number of virus plaques, HSV-1 HFEM strain, 4 days incubation at 37 C, read-out: PDD50 (the source's name)
Protocol: (§1) Vero (African Green Monkey Kidney) cells were grown to confluence in 24 well multidishes, each well being 1.6 cm in diameter. The cells were infected with Herpes simplex type 1 virus (HFEM strain) and overlaid with 0.5ml of 0.9% agarose (w/v) in maintenance medium. Test compounds prepared in maintenance medium in concentrations ranging from 100 to 0.03 pg/ml in half-log dilution steps, were added in 0.5ml volume. The virus infected cultures were then incubated at 37 °C for 4 days before fixing in 4% formaldehyde solution and staining with carbolfuchsin.

[2] = Cytotoxicity in the plaque reduction assay cultures; type: cell-based, African Green Monkey; conditions: monkey; minimum concentration of test compound which caused cytotoxicity; Vero cells, 4 days; highest concentration tested 100; read-out: MTD
Protocol: as §1

Structure (SMILES): O=c1[nH]c(=O)n([C@H]2C[C@H](OC3CCCCO3)[C@@H](CO)O2)cc1/C=C/Br (stereo partly drawn) [Example 5, 5-(E-2-bromovinyl)-2'-deoxy-3'-O-(tetrahydropyran-2-yl)uridine]
IC50 ([1]; molar units): 4.3 µM
IC50 [1]: 1.8 µg/mL
MCC at 96 h [2]: > 100 µg/mL

Structure (SMILES): O=c1[nH]c(=O)n([C@H]2C[C@H](OC3CCCO3)[C@@H](COC3CCCO3)O2)cc1/C=C/Br (stereo partly drawn) [Example 1, 5-(E-2-Bromovinyl)-2'-deoxy-3',5'-bis-O-(tetrahydrofuran-2-yl)uridine]
IC50 ([1]; molar units): 9 µM
IC50 [1]: 4.3 µg/mL
MCC at 96 h [2]: > 100 µg/mL

Structure (SMILES): O=c1[nH]c(=O)n([C@H]2C[C@H](OC3CCCO3)[C@@H](CO)O2)cc1/C=C/Br (stereo partly drawn) [Example 2, 5-(E-2-bromovinyl)-2'-deoxy-3'-O-(tetrahydrofuran-2-yl)uridine]
IC50 ([1]; molar units): 2.8 µM
IC50 [1]: 1.1 µg/mL
MCC at 96 h [2]: > 100 µg/mL

Structure (SMILES): CCOC(CCl)OC[C@H]1O[C@@H](n2cc(/C=C/Br)c(=O)[nH]c2=O)C[C@@H]1OC(CCl)OCC (stereo partly drawn) [Example 19, 5-(E-2-Bromovinyl)-3',5'-bis-0-(2-chloro-1-ethoxyethyl)-2'-deoxyuridine]
IC50 ([1]; molar units): 17 µM
IC50 [1]: 9.1 µg/mL
MCC at 96 h [2]: > 100 µg/mL

Structure (SMILES): O=c1[nH]c(=O)n([C@H]2C[C@H](OC3CCCCO3)[C@@H](COC3CCCCO3)O2)cc1/C=C/Br (stereo partly drawn) [Example 4, 5-(E-2-Bromovinyl)-2'-deoxy-3',5'-bis-O-(tetrahdropyropyran-2-yl)uridine]
IC50 ([1]; molar units): 34 µM
IC50 [1]: 17 µg/mL
MCC at 96 h [2]: 100 µg/mL

More lines, main results first:

IC50 ([1]; molar units): 15 µM
IC50 [1]: 6.4 µg/mL
Structure (SMILES): CCOC(CC)OC[C@H]1O[C@@H](n2cc(/C=C/Br)c(=O)[nH]c2=O)C[C@@H]1O (stereo partly drawn) [Example 8, 5-(E-2-bromovinyl)-2'-deoxy-5'-O-(1-ethoxypropyl)uridine]
MCC at 96 h [2]: > 100 µg/mL

IC50 ([1]; molar units): 15 µM
IC50 [1]: 6.6 µg/mL
Structure (SMILES): O=c1[nH]c(=O)n([C@H]2C[C@H](O)[C@@H](COCOCc3ccccc3)O2)cc1/C=C/Br [Example 12, 5'-O-benzoxymethyl-5-(E-2-bromovinyl)-2'-deoxyuridine]
MCC at 96 h [2]: > 100 µg/mL

IC50 ([1]; molar units): 126 µM
IC50 [1]: 72 µg/mL
Structure (SMILES): O=c1[nH]c(=O)n([C@H]2C[C@H](OCOCc3ccccc3)[C@@H](COCOCc3ccccc3)O2)cc1/C=C/Br [Example 10, 3',5'-Bis-O-benzoxmethl-5-(E-2-bromovinyl)-2'-deoxuridine]
MCC at 96 h [2]: > 100 µg/mL

IC50 ([1]; molar units): 43 µM
IC50 [1]: 19 µg/mL
Structure (SMILES): CCOC(CCl)OC[C@H]1O[C@@H](n2cc(/C=C/Br)c(=O)[nH]c2=O)C[C@@H]1O (stereo partly drawn) [Example 21, 5-(E-2-bromovinyl)-5'-0-(2-chloro-1-ethoxyethyl)-2'-deoxyuridine]
MCC at 96 h [2]: > 100 µg/mL

IC50 ([1]; molar units): 7.5 µM
IC50 [1]: 3.3 µg/mL
Structure (SMILES): CCOC(CCl)O[C@H]1C[C@H](n2cc(/C=C/Br)c(=O)[nH]c2=O)O[C@@H]1CO (stereo partly drawn) [Example 20, 5-(E-2-bromovinyl)-3'-O-(2-chloro-1-ethoxyethyl)-2^1-deoxyuridine]
MCC at 96 h [2]: > 100 µg/mL

IC50 ([1]; molar units): 170 µM
IC50 [1]: 69 µg/mL
Structure (SMILES): O=c1[nH]c(=O)n([C@H]2C[C@H](O)[C@@H](COC3CCCCO3)O2)cc1/C=C/Br (stereo partly drawn) [Example 6, 5-(E-2-bromo-vinyl) -2'-deoxy-5'-O-(tetrahydropyran-2-yl) uridine]
MCC at 96 h [2]: > 100 µg/mL
